Results from PubChem BioAssay AID2060489 (Molecular Pharmacology Branch, DTP, NCI, 2025).
pIC50: −log10 of the molar value.

System: 922993-354-T-J3-PDC complex spheroids, viability
Experiment: Anticancer human tumor 922993-354-T-J3-PDC patient-derived endometrial carcinoma cell line growth inhibition [GQUAD]
Conditions: for pIC50: curve of first compound; for viability, T/C: stronger effect = lower value
How it was run: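 Tumor cells were grown as complex spheroids with HUVEC endothelial cells and mesenchymal stem cells as stroma. G-quadruplex stabilizers were combined with targeted agents over half-log dilutions from near the clinical Cmax, or from 10 microM.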

[1] = second compound 0.0316 µM, first compound 0.0316 µM
[2] = second compound 0.0316 µM, first compound 0.1 µM
[3] = second compound 0.0316 µM, first compound 0.316 µM
[4] = second compound 0.0316 µM, first compound 1 µM
[5] = second compound 0.0316 µM, first compound 3.16 µM
[6] = second compound 0.0316 µM, first compound 10 µM
[7] = second compound 0.1 µM, first compound 0.0316 µM
[8] = second compound 0.1 µM, first compound 0.1 µM
[9] = second compound 0.1 µM, first compound 0.316 µM
[10] = second compound 0.1 µM, first compound 1 µM
[11] = second compound 0.1 µM, first compound 3.16 µM
[12] = second compound 0.1 µM, first compound 10 µM
[13] = second compound 0.316 µM, first compound 0.0316 µM
[14] = second compound 0.316 µM, first compound 0.1 µM
[15] = second compound 0.316 µM, first compound 0.316 µM
[16] = second compound 0.316 µM, first compound 1 µM
[17] = second compound 0.316 µM, first compound 3.16 µM
[18] = second compound 0.316 µM, first compound 10 µM
[19] = second compound 1 µM, first compound 0.0316 µM
[20] = second compound 1 µM, first compound 0.1 µM
[21] = second compound 1 µM, first compound 0.316 µM
[22] = second compound 1 µM, first compound 1 µM
[23] = second compound 1 µM, first compound 3.16 µM
[24] = second compound 1 µM, first compound 10 µM
[25] = second compound 3.16 µM, first compound 0.0316 µM
[26] = second compound 3.16 µM, first compound 0.1 µM
[27] = second compound 3.16 µM, first compound 0.316 µM
[28] = second compound 3.16 µM, first compound 1 µM
[29] = second compound 3.16 µM, first compound 3.16 µM
[30] = second compound 3.16 µM, first compound 10 µM
[31] = second compound 10 µM, first compound 0.0316 µM
[32] = second compound 10 µM, first compound 0.1 µM
[33] = second compound 10 µM, first compound 0.316 µM
[34] = second compound 10 µM, first compound 1 µM
[35] = second compound 10 µM, first compound 3.16 µM
[36] = second compound 10 µM, first compound 10 µM
[37] = second compound 0.0316 µM, first compound 0.000999 µM
[38] = second compound 0.0316 µM, first compound 0.00316 µM
[39] = second compound 0.0316 µM, first compound 0.00999 µM
[40] = second compound 0.0316 µM, first compound 0.0999 µM
[41] = second compound 0.1 µM, first compound 0.000999 µM
[42] = second compound 0.1 µM, first compound 0.00316 µM
[43] = second compound 0.1 µM, first compound 0.00999 µM
[44] = second compound 0.1 µM, first compound 0.0999 µM
[45] = second compound 0.316 µM, first compound 0.000999 µM
[46] = second compound 0.316 µM, first compound 0.00316 µM
[47] = second compound 0.316 µM, first compound 0.00999 µM
[48] = second compound 0.316 µM, first compound 0.0999 µM
[49] = second compound 1 µM, first compound 0.000999 µM
[50] = second compound 1 µM, first compound 0.00316 µM
[51] = second compound 1 µM, first compound 0.00999 µM
[52] = second compound 1 µM, first compound 0.0999 µM
[53] = second compound 3.16 µM, first compound 0.000999 µM
[54] = second compound 3.16 µM, first compound 0.00316 µM
[55] = second compound 3.16 µM, first compound 0.00999 µM
[56] = second compound 3.16 µM, first compound 0.0999 µM
[57] = second compound 10 µM, first compound 0.000999 µM
[58] = second compound 10 µM, first compound 0.00316 µM
[59] = second compound 10 µM, first compound 0.00999 µM
[60] = second compound 10 µM, first compound 0.0999 µM
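Note: spheroids exposed to compounds for seven days.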
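Throughout, for viability, T/C: 100% = DMSO vehicle control viability.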

With `C=CC(=O)N1CCN(c2nc(=O)n(-c3c(C)ccnc3C(C)C)c3nc(-c4c(O)cccc4F)c(F)cc23)C(C)C1` (stereo not drawn) + Cc1cnc(CNC(=O)c2c(=O)c3ccc(N4CCCN(C)CC4)nc3n3c2sc2ccccc23)cn1 the pIC50 (second compound 0.0316 µM) was less than 5.00, the pIC50 (second compound 0.1 µM) was less than 5.00 and the pIC50 (second compound 0.316 µM) was less than 5.00. The pIC50 (second compound 1 µM) was less than 5.00, the pIC50 (second compound 3.16 µM) was less than 5.00 and the pIC50 (second compound 10 µM) was 7.50. The viability, T/C [1] was 109%, the viability, T/C [2] was 89.1% and the viability, T/C [3] was 79.2%. The viability, T/C [4] was 99.5%, the viability, T/C [5] was 80.4% and the viability, T/C [6] was 100%. The viability, T/C [7] was 71.2%, the viability, T/C [8] was 73.2% and the viability, T/C [9] was 52.8%. For the same molecule, the viability, T/C [10] was 67%, the viability, T/C [11] was 77.2% and the viability, T/C [12] was 53.9%. For the same molecule, the viability, T/C [13] was 49.1%, the viability, T/C [14] was 57.5% and the viability, T/C [15] was 51.8%. For the same molecule, the viability, T/C [16] was 53.1%, the viability, T/C [17] was 55.1% and the viability, T/C [18] was 61.9%. It also gave a viability, T/C [19] of 55.2%, a viability, T/C [20] of 61.1% and a viability, T/C [21] of 46.9%. For the same molecule, the viability, T/C [22] was 47.7%, the viability, T/C [23] was 53.8% and the viability, T/C [24] was 55.1%. For the same molecule, the viability, T/C [25] was 53.9%, the viability, T/C [26] was 55.9% and the viability, T/C [27] was 55.4%. It also gave a viability, T/C [28] of 51.3%, a viability, T/C [29] of 65.7% and a viability, T/C [30] of 53.7%. For the same molecule, the viability, T/C [31] was 52.5%, the viability, T/C [32] was 58.1% and the viability, T/C [33] was 53.2%. The viability, T/C [34] was 46%, the viability, T/C [35] was 64% and the viability, T/C [36] was 70%.
`CCc1c2c(nc3ccc(O)cc13)-c1cc3c(c(=O)n1C2)COC(=O)[C@]3(O)CC` + Cc1cnc(CNC(=O)c2c(=O)c3ccc(N4CCCN(C)CC4)nc3n3c2sc2ccccc23)cn1 showed a pIC50 (second compound 0.0316 µM) of 7.95, a pIC50 (second compound 0.1 µM) of 8.28 and a pIC50 (second compound 0.316 µM) greater than 9.00. For the same molecule, the pIC50 (second compound 1 µM) was 8.29, the pIC50 (second compound 3.16 µM) was greater than 9.00 and the pIC50 (second compound 10 µM) was greater than 9.00. The viability, T/C [37] was 85.3%, the viability, T/C [38] was 74.5% and the viability, T/C [39] was 54.5%. The viability, T/C [1] was 25.2%, the viability, T/C [40] was 24.4% and the viability, T/C [3] was 31.6%. For the same molecule, the viability, T/C [41] was 66.8%, the viability, T/C [42] was 63.4% and the viability, T/C [43] was 33.2%. The viability, T/C [7] was 23.4%, the viability, T/C [44] was 29.4% and the viability, T/C [9] was 33.4%. For the same molecule, the viability, T/C [45] was 53.9%, the viability, T/C [46] was 43.3% and the viability, T/C [47] was 32.2%. For the same molecule, the viability, T/C [13] was 26.3%, the viability, T/C [48] was 45.5% and the viability, T/C [15] was 52.1%. The viability, T/C [49] was 48.7%, the viability, T/C [50] was 60.6% and the viability, T/C [51] was 43.5%. For the same molecule, the viability, T/C [19] was 37%, the viability, T/C [52] was 42.1% and the viability, T/C [21] was 38.1%. It also gave a viability, T/C [53] of 44.7%, a viability, T/C [54] of 44% and a viability, T/C [55] of 46.5%. It also gave a viability, T/C [25] of 49%, a viability, T/C [56] of 47.4% and a viability, T/C [27] of 38.8%. The viability, T/C [57] was 37.6%, the viability, T/C [58] was 49.3% and the viability, T/C [59] was 45.3%. For the same molecule, the viability, T/C [31] was 44.1%, the viability, T/C [60] was 45% and the viability, T/C [33] was 26%.
`Cc1cccc(N(C)C(=O)C2C(O)CCN2c2nc(C)cc(C(F)(F)F)c2C#N)c1` (stereo not drawn) + Cc1cnc(CNC(=O)c2c(=O)c3ccc(N4CCCN(C)CC4)nc3n3c2sc2ccccc23)cn1 showed a pIC50 (second compound 0.0316 µM) of less than 5.00, a pIC50 (second compound 0.1 µM) of 5.38 and a pIC50 (second compound 0.316 µM) greater than 7.50. The pIC50 (second compound 1 µM) was less than 5.00, the pIC50 (second compound 3.16 µM) was greater than 7.50 and the pIC50 (second compound 10 µM) was greater than 7.50. The viability, T/C [1] was 78%, the viability, T/C [2] was 87.2% and the viability, T/C [3] was 88%. For the same molecule, the viability, T/C [4] was 77.9%, the viability, T/C [5] was 74.6% and the viability, T/C [6] was 68.6%. The viability, T/C [7] was 65.1%, the viability, T/C [8] was 62.4% and the viability, T/C [9] was 59%. It also gave a viability, T/C [10] of 52.9%, a viability, T/C [11] of 55.8% and a viability, T/C [12] of 43.9%. It also gave a viability, T/C [13] of 50.3%, a viability, T/C [14] of 42.7% and a viability, T/C [15] of 43.4%. It also gave a viability, T/C [16] of 53.7%, a viability, T/C [17] of 45.5% and a viability, T/C [18] of 47.1%. It also gave a viability, T/C [19] of 54.7%, a viability, T/C [20] of 59% and a viability, T/C [21] of 54.4%. It also gave a viability, T/C [22] of 46.1%, a viability, T/C [23] of 57.8% and a viability, T/C [24] of 53.5%. It also gave a viability, T/C [25] of 50.9%, a viability, T/C [26] of 44.4% and a viability, T/C [27] of 41.3%. For the same molecule, the viability, T/C [28] was 46.1%, the viability, T/C [29] was 51.1% and the viability, T/C [30] was 44.6%. It also gave a viability, T/C [31] of 39.6%, a viability, T/C [32] of 48.5% and a viability, T/C [33] of 56.8%. It also gave a viability, T/C [34] of 39.1%, a viability, T/C [35] of 50.6% and a viability, T/C [36] of 41.4%.
`Cn1ncnc1[C@H]1c2n[nH]c(=O)c3cc(F)cc(c23)N[C@@H]1c1ccc(F)cc1` + Cc1cnc(CNC(=O)c2c(=O)c3ccc(N4CCCN(C)CC4)nc3n3c2sc2ccccc23)cn1 was tested, and the pIC50 (second compound 0.0316 µM) was less than 6.50, the pIC50 (second compound 0.1 µM) was 7.14 and the pIC50 (second compound 0.316 µM) was 8.14. It also gave a pIC50 (second compound 1 µM) greater than 9.00, a pIC50 (second compound 3.16 µM) greater than 9.00 and a pIC50 (second compound 10 µM) greater than 9.00. For the same molecule, the viability, T/C [37] was 93.2%, the viability, T/C [38] was 78.7% and the viability, T/C [39] was 76.6%. The viability, T/C [1] was 72.8%, the viability, T/C [40] was 72.3% and the viability, T/C [3] was 59.9%. It also gave a viability, T/C [41] of 65.4%, a viability, T/C [42] of 69.2% and a viability, T/C [43] of 58.3%. The viability, T/C [7] was 50.7%, the viability, T/C [44] was 52.2% and the viability, T/C [9] was 39.3%. It also gave a viability, T/C [45] of 43.5%, a viability, T/C [46] of 54.2% and a viability, T/C [47] of 55.6%. For the same molecule, the viability, T/C [13] was 44.2%, the viability, T/C [48] was 41.6% and the viability, T/C [15] was 32%. It also gave a viability, T/C [49] of 49.2%, a viability, T/C [50] of 53.4% and a viability, T/C [51] of 45.9%. It also gave a viability, T/C [19] of 49.9%, a viability, T/C [52] of 50.3% and a viability, T/C [21] of 49.6%. The viability, T/C [53] was 41.9%, the viability, T/C [54] was 50.1% and the viability, T/C [55] was 44%. It also gave a viability, T/C [25] of 49.5%, a viability, T/C [56] of 49.4% and a viability, T/C [27] of 37.2%. For the same molecule, the viability, T/C [57] was 49%, the viability, T/C [58] was 43.6% and the viability, T/C [59] was 48.4%. For the same molecule, the viability, T/C [31] was 49%, the viability, T/C [60] was 49.3% and the viability, T/C [33] was 41.6%.
